Data reported in ChEMBL document CHEMBL1201862, “PubChem BioAssay data set” (2004).
Each block holds one molecule with its values, some of them ahead of it. The source made the active and inactive calls.

Legend:
[1] = target: Glycogen synthase kinase-3 alpha (Homo sapiens, UniProt P49840); assay: GSK3A enzyme blockers, homolog specificity check – biochemical, microfluidics, dry powder samples, set 2, selectivity assay for GSK3beta inhibitor project, dose response (AID 623978); type: functional
[2] = target: T1, Glycogen synthase kinase-3 beta (Homo sapiens, UniProt P49841); assay: inhibition of human GSK3B activity – biochemical, microfluidics, dry powder samples, set 2, dose response (AID 623989); type: functional
[3] = target: T2, Ubiquitin-conjugating enzyme E2 N (Homo sapiens, UniProt P61088); type: functional
T2 sequence (P61088 whole entry): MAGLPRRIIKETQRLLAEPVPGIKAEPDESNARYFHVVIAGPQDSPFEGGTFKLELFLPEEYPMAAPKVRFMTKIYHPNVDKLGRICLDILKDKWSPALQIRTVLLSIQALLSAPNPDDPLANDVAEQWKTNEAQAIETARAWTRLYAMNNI

[4] = target: T3, High affinity choline transporter 1 (Homo sapiens, UniProt Q9GZV3); assay: human choline transporter blockers, potency – cell-based, 10-point CRC, membrane potential dye, dose response (AID 588401); type: functional;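 further: membrane potential dye fluorescence of choline-evoked depolarization via CHT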
T3 sequence (Q9GZV3 whole entry): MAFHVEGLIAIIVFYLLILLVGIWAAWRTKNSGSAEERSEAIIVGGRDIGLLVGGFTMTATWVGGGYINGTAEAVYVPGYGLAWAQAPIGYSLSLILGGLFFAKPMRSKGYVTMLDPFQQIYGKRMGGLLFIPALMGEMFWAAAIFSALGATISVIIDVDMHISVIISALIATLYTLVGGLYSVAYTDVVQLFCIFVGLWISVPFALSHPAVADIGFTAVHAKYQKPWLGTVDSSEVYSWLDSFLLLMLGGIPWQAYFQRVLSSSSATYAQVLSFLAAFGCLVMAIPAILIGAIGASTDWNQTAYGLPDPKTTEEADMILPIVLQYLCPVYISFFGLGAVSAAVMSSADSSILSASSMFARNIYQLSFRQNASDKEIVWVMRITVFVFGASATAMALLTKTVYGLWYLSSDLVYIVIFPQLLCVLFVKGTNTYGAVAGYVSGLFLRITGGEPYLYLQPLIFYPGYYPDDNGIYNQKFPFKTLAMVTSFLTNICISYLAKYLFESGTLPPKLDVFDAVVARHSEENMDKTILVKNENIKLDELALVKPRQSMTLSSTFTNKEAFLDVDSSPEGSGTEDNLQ

CAAX prenyl protease 2 = target: T4, CAAX prenyl protease 2 (Saccharomyces cerevisiae S288c, UniProt Q03530); type: biochemical
T4 sequence (Q03530 whole entry): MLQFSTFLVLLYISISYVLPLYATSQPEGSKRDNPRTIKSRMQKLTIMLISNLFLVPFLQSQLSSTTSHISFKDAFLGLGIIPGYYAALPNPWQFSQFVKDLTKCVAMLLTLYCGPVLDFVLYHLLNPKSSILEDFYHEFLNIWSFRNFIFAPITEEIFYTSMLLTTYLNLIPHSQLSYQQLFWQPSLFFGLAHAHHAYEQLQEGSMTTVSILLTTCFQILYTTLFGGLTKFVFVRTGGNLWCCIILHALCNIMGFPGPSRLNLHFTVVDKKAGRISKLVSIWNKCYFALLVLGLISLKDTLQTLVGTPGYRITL

CAAX prenyl protease 1 = CAAX prenyl protease 1 (Saccharomyces cerevisiae S288c, UniProt P47154); assay: yeast CAAX protease Ste24 inhibition – biochemical, S. cerevisiae, plate reader, cherry-pick, dose response (AID 488815)
Bcl-2-related protein A1 = target: T5, Bcl-2-related protein A1 (Mus musculus, UniProt Q07440); type: functional;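 further: confirmatory dose–response counterscreen on Bfl-1, used to check hits from a UBC13 polyubiquitin inhibitor campaign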
T5 sequence (Q07440 whole entry): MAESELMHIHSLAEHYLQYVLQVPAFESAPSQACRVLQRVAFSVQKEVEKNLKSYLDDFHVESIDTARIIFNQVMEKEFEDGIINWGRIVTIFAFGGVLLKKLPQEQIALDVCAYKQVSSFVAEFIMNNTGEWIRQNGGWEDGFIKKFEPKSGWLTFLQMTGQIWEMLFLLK

[5] = target: T2, Ubiquitin-conjugating enzyme E2 N; type: functional; remark: listed apart in the source
[6] = target: T3, High affinity choline transporter 1; assay: human choline transporter blockers, potency – cell-based, 5-point CRC, membrane potential dye, dose response (AID 504840); type: functional
[7] = target: Serine/threonine-protein kinase pim-1 (Homo sapiens, UniProt P11309); type: functional
[8] = target: Dual specificity protein kinase CLK4 (Homo sapiens, UniProt Q9HAZ1); type: functional
[9] = target: Rho-associated protein kinase 1 (Homo sapiens, UniProt Q13464); type: functional;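 further: measured within a broad kinome-wide panel profiling many kinases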
[10] = target: Cyclin-dependent kinase 7 (Homo sapiens, UniProt P50613); type: functional;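 further: value comes from a kinome-wide kinase profiling panel in which CDK7 is one member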
[11] = target: T1, Glycogen synthase kinase-3 beta; type: functional
[12] = target: Cyclin-dependent kinase 8 (Homo sapiens, UniProt P49336); assay: Navigating the Kinome. Panel member name: CDK8; type: functional
[13] = target: Cyclin-dependent kinase 9 (Homo sapiens, UniProt P50750); type: functional;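 further: value from the CDK9 entry of a kinome-spanning kinase panel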
LIM domain kinase 1 = LIM domain kinase 1 (Homo sapiens, UniProt P53667); assay: Navigating the Kinome. Panel member name: LIMK1; type: functional
[14] = target: Serine/threonine-protein kinase Chk1 (Homo sapiens, UniProt O14757); type: functional;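 further: measured as one member of a kinome-wide kinase profiling panel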
[15] = target: Neuropeptides B/W receptor type 1 (Homo sapiens, UniProt P48145); assay: human NPBW1 receptor blockade, IC50 – cell-based, fluorescence, dose response, set 5, late-stage follow-up (AID 588566); type: functional
[16] = target: Melanin-concentrating hormone receptor 1 (Homo sapiens, UniProt Q99705); assay: Late-stage fluorescence-based counterscreen for antagonists of the G-protein coupled receptor 7 (GPR7): cell-based dose response assay to identify antagonists of the melanin-concentrating hormone receptor 1 (MCHR1) Set 5.; type: functional
[17] = target: Cell division cycle 7-related protein kinase (Homo sapiens, UniProt O00311); type: functional;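 further: value obtained from a kinome-wide kinase panel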
[18] = target: MAP kinase-activated protein kinase 3 (Homo sapiens, UniProt Q16644); type: functional;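 further: value comes from a kinome-wide profiling panel in which MAPKAPK3 is one of the panel members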
[19] = target: Protein kinase C gamma type (Homo sapiens, UniProt P05129); type: functional
[20] = target: Eukaryotic elongation factor 2 kinase (Homo sapiens, UniProt O00418); type: functional
[21] = target: Cyclin-dependent kinase 1 (Homo sapiens, UniProt P06493); type: functional;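 further: Kinome-wide panel profiling, with the target listed as panel member CDC2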
[22] = target: T6, Lymphokine-activated killer T-cell-originated protein kinase (Homo sapiens, UniProt Q96KB5); type: functional;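 further: value comes from a kinase panel screen in which TOPK was one of the panel members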
T6 sequence (Q96KB5 whole entry): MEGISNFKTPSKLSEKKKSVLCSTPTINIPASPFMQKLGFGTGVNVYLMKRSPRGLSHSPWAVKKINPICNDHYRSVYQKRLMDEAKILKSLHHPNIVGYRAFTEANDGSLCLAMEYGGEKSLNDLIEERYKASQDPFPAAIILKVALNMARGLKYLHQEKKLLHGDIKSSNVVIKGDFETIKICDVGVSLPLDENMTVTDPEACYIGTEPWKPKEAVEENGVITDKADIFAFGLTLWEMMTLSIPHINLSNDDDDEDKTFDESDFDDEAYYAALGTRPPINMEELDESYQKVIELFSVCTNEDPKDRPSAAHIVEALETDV

[23] = target: G protein-coupled receptor kinase 5 (Homo sapiens, UniProt P34947); assay: Navigating the Kinome. Panel member name: GPRK5; type: functional
[24] = target: PAS domain-containing serine/threonine-protein kinase (Homo sapiens, UniProt Q96RG2); type: functional
[25] = target: T7, Protein kinase C zeta type (Homo sapiens, UniProt Q05513); type: functional;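 further: measured as one member of a broad kinase profiling panel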
T7 sequence (Q05513 whole entry): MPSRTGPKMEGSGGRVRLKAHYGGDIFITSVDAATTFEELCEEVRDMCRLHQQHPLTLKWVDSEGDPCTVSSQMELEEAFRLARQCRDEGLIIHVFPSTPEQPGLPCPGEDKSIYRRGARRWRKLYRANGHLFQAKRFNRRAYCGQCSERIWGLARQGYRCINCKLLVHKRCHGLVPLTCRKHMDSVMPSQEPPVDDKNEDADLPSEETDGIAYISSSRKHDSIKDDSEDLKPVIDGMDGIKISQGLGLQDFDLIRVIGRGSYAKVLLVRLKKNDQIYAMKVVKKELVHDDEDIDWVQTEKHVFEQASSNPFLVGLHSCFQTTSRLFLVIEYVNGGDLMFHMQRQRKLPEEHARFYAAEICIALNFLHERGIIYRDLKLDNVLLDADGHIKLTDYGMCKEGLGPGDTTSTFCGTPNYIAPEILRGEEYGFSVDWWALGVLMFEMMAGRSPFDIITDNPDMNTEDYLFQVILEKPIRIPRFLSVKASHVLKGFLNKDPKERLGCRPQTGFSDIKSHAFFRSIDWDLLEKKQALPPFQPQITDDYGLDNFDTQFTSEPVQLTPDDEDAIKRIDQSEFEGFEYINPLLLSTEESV

[26] = target: T8, Testis-specific serine/threonine-protein kinase 2 (Homo sapiens, UniProt Q96PF2); type: functional;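 further: part of the Navigating the Kinome panel, target entry STK22B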
T8 sequence (Q96PF2 whole entry): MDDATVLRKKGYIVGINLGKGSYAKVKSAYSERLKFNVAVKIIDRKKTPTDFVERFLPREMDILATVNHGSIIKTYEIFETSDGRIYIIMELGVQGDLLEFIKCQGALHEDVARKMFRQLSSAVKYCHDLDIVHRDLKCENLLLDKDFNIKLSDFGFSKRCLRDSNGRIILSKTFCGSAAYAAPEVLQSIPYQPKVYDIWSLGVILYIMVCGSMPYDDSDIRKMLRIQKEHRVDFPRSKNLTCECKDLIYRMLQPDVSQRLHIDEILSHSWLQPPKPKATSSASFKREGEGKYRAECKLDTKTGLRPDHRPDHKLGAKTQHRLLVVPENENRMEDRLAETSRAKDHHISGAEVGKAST

[27] = target: T9, Dual specificity tyrosine-phosphorylation-regulated kinase 3 (Homo sapiens, UniProt O43781); type: functional;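 further: measured as one member of a broad kinase panel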
T9 sequence (O43781 whole entry): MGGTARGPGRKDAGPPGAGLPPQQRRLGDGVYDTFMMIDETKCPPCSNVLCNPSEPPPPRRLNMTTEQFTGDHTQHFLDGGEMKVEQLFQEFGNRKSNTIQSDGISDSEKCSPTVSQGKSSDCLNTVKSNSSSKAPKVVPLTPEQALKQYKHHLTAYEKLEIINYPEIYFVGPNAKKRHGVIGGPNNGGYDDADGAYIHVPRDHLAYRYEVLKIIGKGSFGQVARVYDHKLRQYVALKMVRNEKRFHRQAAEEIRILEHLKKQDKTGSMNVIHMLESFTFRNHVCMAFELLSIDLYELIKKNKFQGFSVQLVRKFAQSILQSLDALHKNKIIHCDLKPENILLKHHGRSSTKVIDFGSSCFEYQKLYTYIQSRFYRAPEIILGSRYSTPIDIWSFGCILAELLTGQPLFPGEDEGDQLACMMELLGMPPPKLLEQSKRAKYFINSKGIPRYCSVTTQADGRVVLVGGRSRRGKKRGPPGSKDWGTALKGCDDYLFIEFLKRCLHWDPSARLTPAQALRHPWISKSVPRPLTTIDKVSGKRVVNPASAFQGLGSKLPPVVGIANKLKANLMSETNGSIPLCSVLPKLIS

T1 sequence (P49841 whole entry): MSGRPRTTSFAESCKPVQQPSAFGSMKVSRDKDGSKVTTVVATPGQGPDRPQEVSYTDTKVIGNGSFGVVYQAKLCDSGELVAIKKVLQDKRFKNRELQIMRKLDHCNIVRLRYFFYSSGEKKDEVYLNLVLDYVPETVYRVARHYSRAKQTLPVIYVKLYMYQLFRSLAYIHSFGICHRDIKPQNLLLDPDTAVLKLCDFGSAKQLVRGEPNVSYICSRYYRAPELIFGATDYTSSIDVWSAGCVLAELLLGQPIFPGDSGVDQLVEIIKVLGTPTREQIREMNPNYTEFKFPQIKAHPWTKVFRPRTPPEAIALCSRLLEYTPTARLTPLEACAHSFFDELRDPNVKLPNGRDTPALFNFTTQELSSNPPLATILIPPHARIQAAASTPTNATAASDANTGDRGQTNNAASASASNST
Eukaryotic elongation factor 2 kinase, sequence (O00418 whole entry): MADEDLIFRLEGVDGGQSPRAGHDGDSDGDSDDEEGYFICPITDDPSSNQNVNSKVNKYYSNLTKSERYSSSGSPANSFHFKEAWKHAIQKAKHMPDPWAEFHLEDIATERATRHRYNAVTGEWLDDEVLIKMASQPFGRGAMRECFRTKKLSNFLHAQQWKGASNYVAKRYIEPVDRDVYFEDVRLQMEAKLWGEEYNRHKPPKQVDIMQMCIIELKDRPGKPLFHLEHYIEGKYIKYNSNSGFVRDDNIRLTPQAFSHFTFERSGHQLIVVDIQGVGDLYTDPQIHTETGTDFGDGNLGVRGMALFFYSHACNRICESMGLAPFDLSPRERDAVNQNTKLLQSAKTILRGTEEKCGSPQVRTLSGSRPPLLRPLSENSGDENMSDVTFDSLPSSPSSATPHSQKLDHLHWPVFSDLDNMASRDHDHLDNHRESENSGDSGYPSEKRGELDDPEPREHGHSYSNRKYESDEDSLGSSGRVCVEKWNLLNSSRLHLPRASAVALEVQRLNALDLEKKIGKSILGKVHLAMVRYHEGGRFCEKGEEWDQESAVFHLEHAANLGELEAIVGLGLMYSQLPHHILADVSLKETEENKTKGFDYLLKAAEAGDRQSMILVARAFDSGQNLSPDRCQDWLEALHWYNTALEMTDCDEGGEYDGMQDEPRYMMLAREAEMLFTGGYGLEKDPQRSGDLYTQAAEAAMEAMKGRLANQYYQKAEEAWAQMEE
Neuropeptides B/W receptor type 1, sequence (P48145 whole entry): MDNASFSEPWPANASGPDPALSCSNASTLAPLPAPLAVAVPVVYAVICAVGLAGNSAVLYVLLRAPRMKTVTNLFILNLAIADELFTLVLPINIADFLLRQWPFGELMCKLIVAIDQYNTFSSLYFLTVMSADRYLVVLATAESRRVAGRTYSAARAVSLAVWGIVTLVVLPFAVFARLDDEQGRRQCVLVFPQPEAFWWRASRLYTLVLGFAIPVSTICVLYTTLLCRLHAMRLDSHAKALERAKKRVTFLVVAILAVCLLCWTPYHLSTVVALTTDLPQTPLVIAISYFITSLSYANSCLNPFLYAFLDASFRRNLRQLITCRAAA
Serine/threonine-protein kinase Chk1, sequence (O14757 whole entry): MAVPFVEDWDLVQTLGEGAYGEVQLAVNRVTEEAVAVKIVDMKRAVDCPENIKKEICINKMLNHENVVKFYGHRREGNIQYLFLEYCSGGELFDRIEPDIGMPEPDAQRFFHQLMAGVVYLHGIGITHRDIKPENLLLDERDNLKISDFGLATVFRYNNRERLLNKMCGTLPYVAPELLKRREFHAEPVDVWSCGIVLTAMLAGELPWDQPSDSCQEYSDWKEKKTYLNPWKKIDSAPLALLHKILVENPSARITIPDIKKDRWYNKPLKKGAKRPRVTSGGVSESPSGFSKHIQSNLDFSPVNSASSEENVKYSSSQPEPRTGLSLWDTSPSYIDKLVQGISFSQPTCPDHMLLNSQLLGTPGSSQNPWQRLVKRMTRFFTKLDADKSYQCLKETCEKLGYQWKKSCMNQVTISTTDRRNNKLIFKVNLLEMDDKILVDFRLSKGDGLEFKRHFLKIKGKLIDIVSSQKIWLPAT
LIM domain kinase 1, sequence (P53667 whole entry, the tested form may be a part): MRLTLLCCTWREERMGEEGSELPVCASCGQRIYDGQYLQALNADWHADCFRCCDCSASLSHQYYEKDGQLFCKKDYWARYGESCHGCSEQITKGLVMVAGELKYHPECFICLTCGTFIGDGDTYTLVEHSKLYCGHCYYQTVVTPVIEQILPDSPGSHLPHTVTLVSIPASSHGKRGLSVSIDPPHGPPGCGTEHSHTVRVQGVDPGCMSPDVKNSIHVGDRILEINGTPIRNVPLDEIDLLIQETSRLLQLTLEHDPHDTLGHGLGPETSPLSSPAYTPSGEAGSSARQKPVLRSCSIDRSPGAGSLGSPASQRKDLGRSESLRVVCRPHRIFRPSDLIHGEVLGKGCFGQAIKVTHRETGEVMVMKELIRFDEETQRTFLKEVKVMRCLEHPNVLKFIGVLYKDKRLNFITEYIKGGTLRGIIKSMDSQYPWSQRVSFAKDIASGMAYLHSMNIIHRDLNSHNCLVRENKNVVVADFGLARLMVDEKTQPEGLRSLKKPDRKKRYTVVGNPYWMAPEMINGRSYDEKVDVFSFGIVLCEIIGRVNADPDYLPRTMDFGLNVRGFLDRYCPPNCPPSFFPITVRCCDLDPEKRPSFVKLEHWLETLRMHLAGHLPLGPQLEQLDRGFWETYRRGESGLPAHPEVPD
Cyclin-dependent kinase 8, sequence (P49336 whole entry): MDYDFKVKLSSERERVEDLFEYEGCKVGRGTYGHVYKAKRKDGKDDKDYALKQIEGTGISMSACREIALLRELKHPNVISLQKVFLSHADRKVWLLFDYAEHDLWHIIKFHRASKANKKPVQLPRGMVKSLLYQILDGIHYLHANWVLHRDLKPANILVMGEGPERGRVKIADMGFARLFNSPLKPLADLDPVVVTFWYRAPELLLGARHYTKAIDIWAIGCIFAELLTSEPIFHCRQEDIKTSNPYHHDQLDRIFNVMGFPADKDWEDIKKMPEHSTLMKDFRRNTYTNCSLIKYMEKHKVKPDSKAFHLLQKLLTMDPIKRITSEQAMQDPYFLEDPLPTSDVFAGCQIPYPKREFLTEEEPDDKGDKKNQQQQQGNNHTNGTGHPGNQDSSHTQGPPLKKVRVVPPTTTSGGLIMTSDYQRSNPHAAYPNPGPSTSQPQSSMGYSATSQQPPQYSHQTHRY
Melanin-concentrating hormone receptor 1, sequence (Q99705 whole entry): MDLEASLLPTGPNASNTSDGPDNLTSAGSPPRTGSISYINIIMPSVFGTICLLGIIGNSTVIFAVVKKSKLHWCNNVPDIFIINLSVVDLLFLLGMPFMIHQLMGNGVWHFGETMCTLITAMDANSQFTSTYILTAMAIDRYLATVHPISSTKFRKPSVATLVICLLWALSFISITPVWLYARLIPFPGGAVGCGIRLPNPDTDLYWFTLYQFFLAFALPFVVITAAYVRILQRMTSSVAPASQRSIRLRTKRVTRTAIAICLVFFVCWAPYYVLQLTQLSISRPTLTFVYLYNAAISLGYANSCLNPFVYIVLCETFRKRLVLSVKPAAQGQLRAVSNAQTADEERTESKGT
Cyclin-dependent kinase 7, sequence (P50613 whole entry): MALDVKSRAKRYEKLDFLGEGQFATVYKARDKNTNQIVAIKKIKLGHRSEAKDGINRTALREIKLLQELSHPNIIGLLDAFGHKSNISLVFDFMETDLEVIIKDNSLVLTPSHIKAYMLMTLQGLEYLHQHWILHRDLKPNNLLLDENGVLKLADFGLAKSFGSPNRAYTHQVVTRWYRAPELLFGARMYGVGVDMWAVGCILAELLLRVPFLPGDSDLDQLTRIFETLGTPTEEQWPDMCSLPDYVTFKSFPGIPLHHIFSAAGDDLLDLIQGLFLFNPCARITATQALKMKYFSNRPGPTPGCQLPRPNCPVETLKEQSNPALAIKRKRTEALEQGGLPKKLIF
G protein-coupled receptor kinase 5, sequence (P34947 whole entry, the tested form may be a part): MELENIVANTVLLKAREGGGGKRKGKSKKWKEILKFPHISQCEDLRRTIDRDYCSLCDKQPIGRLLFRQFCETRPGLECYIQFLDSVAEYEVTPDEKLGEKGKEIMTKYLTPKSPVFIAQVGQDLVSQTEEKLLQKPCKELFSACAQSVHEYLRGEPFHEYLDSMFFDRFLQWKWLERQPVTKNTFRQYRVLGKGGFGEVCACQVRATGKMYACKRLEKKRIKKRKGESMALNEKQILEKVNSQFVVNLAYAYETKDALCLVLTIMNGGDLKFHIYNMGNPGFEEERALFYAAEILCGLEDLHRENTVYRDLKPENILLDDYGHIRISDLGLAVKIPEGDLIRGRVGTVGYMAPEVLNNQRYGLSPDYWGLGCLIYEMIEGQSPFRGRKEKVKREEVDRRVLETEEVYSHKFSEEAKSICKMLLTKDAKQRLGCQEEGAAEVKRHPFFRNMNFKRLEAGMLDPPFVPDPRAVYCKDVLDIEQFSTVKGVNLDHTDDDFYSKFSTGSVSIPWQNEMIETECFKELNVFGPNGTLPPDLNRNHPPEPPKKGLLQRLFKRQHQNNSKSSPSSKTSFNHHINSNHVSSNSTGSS
MAP kinase-activated protein kinase 3, sequence (Q16644 whole entry): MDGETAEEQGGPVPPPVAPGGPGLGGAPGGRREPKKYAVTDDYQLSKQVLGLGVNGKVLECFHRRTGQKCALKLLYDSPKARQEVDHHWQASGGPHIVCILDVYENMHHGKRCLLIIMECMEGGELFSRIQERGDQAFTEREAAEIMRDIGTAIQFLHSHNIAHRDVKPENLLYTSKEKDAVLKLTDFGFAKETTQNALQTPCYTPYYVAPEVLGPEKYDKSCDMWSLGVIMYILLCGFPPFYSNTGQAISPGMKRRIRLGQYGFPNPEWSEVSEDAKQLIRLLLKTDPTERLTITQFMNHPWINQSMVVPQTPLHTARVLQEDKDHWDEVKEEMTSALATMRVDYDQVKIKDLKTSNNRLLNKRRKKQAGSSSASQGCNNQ

AC50 [1]: 1.56 µM (active)
AC50 [2]: 0.429 µM (active)
SMILES: Nc1nc(NCC2CCCO2)nc(Nc2ccc(Cl)cc2)c1[N+](=O)[O-] (stereo unspecified)

Ki [7]: 2.51 µM (active)
Ki [8]: 1.58 µM (active)
Ki [9]: 3.16 µM (active)
Ki [10]: 1.58 µM (active)
Ki [11]: 2 µM (active)
Ki [12]: 2 µM (active)
Ki [13]: 1.58 µM (active)
Ki (LIM domain kinase 1): 3.16 µM (active)
Ki [14]: 2 µM (active)
SMILES: O=C(C=Cc1ccc(Br)cc1)Nc1cccc2cnccc12

The remaining lines, values behind:

SMILES: NCCCn1c(C(=O)c2cc(Cl)c(N)c(Cl)c2)c2ccc(C(F)(F)F)cc2[n+]1[O-]
IC50 [3]: 4.21 µM (active)
IC50 [4]: 1.08 µM (active)
AC50 (CAAX prenyl protease 2): 35.5 µM (active)
AC50 (CAAX prenyl protease 1): > 100 µM (inactive)
IC50 (Bcl-2-related protein A1): > 20 µM (inactive)
IC50 [5]: 4.28 µM (active)
IC50 [6]: 1.39 µM (active)

SMILES: COc1ccc(Oc2c(F)cnn(Cc3cccc4ccccc34)c2=O)cc1
IC50 [15]: 2.07 µM (active)
IC50 [16]: 8.86 µM (active)

SMILES: CNC(=O)c1ccccc1Sc1ccc2c(C=Cc3ccccn3)n[nH]c2c1
Ki [17]: > 1.26 µM (inactive)
Ki [18]: > 10 µM (inactive)
Ki [19]: > 7.94 µM (inactive)
Ki [20]: > 3.98 µM (inactive)
Ki [21]: > 7.94 µM (inactive)
Ki [22]: > 10 µM (inactive)
Ki [23]: > 3.98 µM (inactive)
Ki [24]: > 1.58 µM (inactive)
Ki [25]: > 7.94 µM (inactive)
Ki [26]: > 1.58 µM (inactive)
Ki [27]: > 6.31 µM (inactive)
